Laboratory results published in ChEMBL document CHEMBL5500412, “Discovery of Highly Selective, Potent, Covalent, and Orally Bioavailable Factor XIIa Inhibitors for the Treatment of Thrombo-Inflammation” (J Med Chem, 2024).
Active and inactive are the calls of the source. The calls are words filed in the database; no cut-off is given here.

Columns and labels:
[1] = Half life in BALB/c mouse at 1 mg/kg, iv measured upto 24 hrs by LC-MS/MS analysis; assay type: ADME, organism-based; conditions: in vivo
Mus musculus = assay: Antiinflammatory activity in carrageenan-induced thrombosis in male BALB/c mouse model assessed as reduction in IL-1 beta level at 10 to 30 mg/kg, po by ELISA method; assay type: functional, organism-based; conditions: dose 10-30 mg/kg
[2] = Toxicity in BALB/c mouse assessed as effect on LDH level in serum at 60 to 100 mg/kg, po measured after 14 days; assay type: organism-based; conditions: in vivo, 336 h, dose 60-100 mg/kg, time 14 day
[3] = Toxicity in BALB/c mouse assessed as effect on heart at 60 to 100 mg/kg, po measured after 14 days by H and E staining based analysis; assay type: organism-based; conditions: in vivo, 336 h, dose 60-100 mg/kg, time 14 day
[4] = Toxicity in BALB/c mouse assessed as effect on spleen at 60 to 100 mg/kg, po measured after 14 days by H and E staining based analysis; assay type: organism-based; conditions: in vivo, 336 h, dose 60-100 mg/kg, time 14 day
[5] = biological target: T1, Coagulation factor XII (Homo sapiens) (UniProt P00748); assay: Binding affinity to FXIIa (unknown origin) assessed as inactivation rate using H-D-Pro-Phe-Arg-pNA.2HCl as substrate by spectrophotometric analysis
T1 sequence (whole entry): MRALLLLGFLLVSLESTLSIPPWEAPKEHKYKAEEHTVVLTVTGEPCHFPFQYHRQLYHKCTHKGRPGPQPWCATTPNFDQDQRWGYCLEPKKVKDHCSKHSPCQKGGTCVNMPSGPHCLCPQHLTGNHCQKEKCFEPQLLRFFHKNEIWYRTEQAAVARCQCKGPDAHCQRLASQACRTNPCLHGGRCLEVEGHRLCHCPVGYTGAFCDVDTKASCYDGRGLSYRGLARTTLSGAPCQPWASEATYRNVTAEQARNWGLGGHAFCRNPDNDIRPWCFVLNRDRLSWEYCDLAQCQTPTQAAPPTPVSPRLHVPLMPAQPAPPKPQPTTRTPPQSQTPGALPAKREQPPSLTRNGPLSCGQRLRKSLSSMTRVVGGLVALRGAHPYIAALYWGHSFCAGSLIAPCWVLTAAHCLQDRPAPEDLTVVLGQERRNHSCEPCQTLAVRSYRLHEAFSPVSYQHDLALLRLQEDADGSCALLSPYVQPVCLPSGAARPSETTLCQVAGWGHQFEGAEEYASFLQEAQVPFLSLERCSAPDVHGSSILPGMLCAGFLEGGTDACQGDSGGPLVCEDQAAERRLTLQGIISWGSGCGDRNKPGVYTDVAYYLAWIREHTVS

[6] = Tmax in BALB/c mouse at 1 mg/kg, iv measured upto 24 hrs by LC-MS/MS analysis; assay type: ADME, organism-based; conditions: in vivo

## CC(C)N1CCCN(c2ccc(C(=O)n3nc(-c4ccccn4)nc3N)c3ccccc23)CC1
[1]
  half-life: 45 min
Mus musculus
  Activity: Active
[2]
  Activity: Non-Toxic
[3]
  Activity: Non-Toxic
[4]
  Activity: Non-Toxic
[5]
  Kinact: 0.027 min⁻¹
[6]
  Tmax: 23.4 min
